Results from US20190070165A1, “N-HYDROXYISOQUINOLINEDIONE INHIBITORS OF HBV REPLICATION” (Saint Louis University, priority 2016, published 2019).
Where two headings read alike, the source gives them in different places.

Experiments:
HBV RNaseH [1] = molecular target: T1, HBV RNaseH (Hepatitis B virus genotype D subtype ayw, UniProt P03156); assay: Molecular beacon RNaseH assay
HSV-1 = HSV-1 replication inhibition assay in Vero cells; format: cell-based, herpes simplex virus 1; conditions: Human alphaherpesvirus 1, 24 h; 5 μM, Vero cells; read-out: HSV-1 suppression (log10 at 5 μM), class symbol
[2] = Neutral red (NR) cytotoxicity assay; format: cell-based; conditions: human, HepDES19 cells, read-out: Toxicity in HepDES19, NR (CC50)
Method: (§1) To further evaluate potential cytotoxicity of these hits, the effect of the compounds was determined for the uptake of neutral red (NR) by the lysosomes and lactate dehydrogenase (LDH) release into the supernatant due to cell membrane permeability. […] Overall, the TI values in Table 3 and FIG. 4 indicate that cytotoxicity was not the cause of antiviral efficacy, although it may have contributed to the apparent efficacy for #84, 85, 90, and 91, which all have TI values below 5.

HBV replication = HBV replication inhibition assay in HepDES19 cells (strand-preferential q-PCR); format: cell-based, Hepatitis B virus; conditions: Hepatitis B virus
[3] = MTS cytotoxicity assay (CellTiter 96); conditions: human
Method: HepDES19 cells were seeded at 1×10^4 cells per well in a 96 well plate in the absence of tetracycline. The test compounds were applied in triplicate to the cells 48 hours later and the cells were incubated for 72 hours. Cell viability was measured using the CellTiter 96 Aqueous Non-Radioactive Cell Proliferation Assay (Promega). [3-(4,5-dimethylthiazol-2-yl)-5-(3-carboxymethoxyphenyl)-2-(4-sulfophenyl)-2H-tetrazolium, inner salt] (MTS) and phenazine methosulfate (PMS) solution at 2 mg/mL MTS and 0.043 mg/mL PMS were added to the medium, the cells were incubated for two hours at 37° C., and absorbance was measured at 490 nm. […] Neutral red was added to the media at a final concentration of 40 μg/mL. Cells were washed with PBS and incubated with neutral red medium for two hours at 37° C. The neutral red medium was removed and the cells were washed with PBS. […] Lactate dehydrogenase (LDH) release was measured using the LDH-cytotoxicity colorimetric assay kit (BioVision). Cells were lysed with 1% Triton-X to provide the high control and DMSO vehicle treatment was the low control. Supernatants were collected and transferred to a fresh 96 well plate, and LDH reaction mixture containing the catalyst and dye solution was added. The reaction was incubated for 15-20 minutes at room temperature in a dark box and absorbance was measured at 490 nm. Percent cytotoxicity was calculated as [(test sample−low control)/([…])]×100.

human RNaseH1 = molecular target: T2, human RNaseH1 (Homo sapiens, UniProt O60930); assay: Oligonucleotide-directed RNA cleavage assay, human RNaseH1; format: biochemical; conditions: compounds at 100, 60 and 20 μM
T2 construct: made in house; host or cells: E. coli
T2 sequence (O60930 1-286): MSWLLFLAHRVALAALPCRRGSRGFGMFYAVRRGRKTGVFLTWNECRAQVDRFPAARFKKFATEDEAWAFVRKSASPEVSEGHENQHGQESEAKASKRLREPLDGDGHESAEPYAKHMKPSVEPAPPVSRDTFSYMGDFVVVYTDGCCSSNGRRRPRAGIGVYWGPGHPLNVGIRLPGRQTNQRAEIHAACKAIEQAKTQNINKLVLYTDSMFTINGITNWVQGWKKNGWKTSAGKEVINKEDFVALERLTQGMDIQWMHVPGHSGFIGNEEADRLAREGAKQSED
Excerpt: RNaseH expression and purification.
Oligonucleotide-directed RNA cleavage assay.

[4] = Stability in mouse liver microsomes; format: in vitro ADME
HBV RNaseH [5] = molecular target: T1, HBV RNaseH
[6] = Lactate dehydrogenase (LDH) release cytotoxicity assay; format: cell-based; conditions: human, HepDES19 cells, read-out: Toxicity in HepDES19, LDH (CC50)
Method: as §1

HBV infections = conditions: cited from earlier work

T1 sequence (P03156 671-832): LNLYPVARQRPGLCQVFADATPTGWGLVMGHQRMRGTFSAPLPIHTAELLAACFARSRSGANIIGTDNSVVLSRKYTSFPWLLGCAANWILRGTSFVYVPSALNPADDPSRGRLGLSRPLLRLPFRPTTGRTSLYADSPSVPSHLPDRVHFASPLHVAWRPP

Row | Molecule | inhibition in the molecular beacon assay (HBV RNaseH [1]; 2.1 μg purified HBV RNaseH) | Inhibition of HBV RNaseH, Molecular Beacon cleavage assay (HBV RNaseH [1]; Table 3, 0 to 500 μM) | log reduction at 5 µM (HSV-1) | CC50 at 72 h [2] [µM] | EC50 (HBV replication; HepDES19, read-out: EC50, HBV replication) [µM] | EC50 (HBV replication; HepDES19, read-out: HBV replication inhibition (EC50, μm)) [µM] | CC50 at 72 h [3] [µM] | inhibition of huRNaseH1 (human RNaseH1) | stability in mouse liver microsomes [4] | Inhibition of HBV RNaseH, Oligonucleotide directed cleavage assay (HBV RNaseH [5]; Table 3, compounds at 100, 60 and 20 μM, compounds 1-91 and 138-140 previously reported (Cai et al., 2014)) | inhibition of RNA cleavage by HBV RNaseH (HBV RNaseH [5]; compounds at 100, 60 and 20 μM) | CC50 at 72 h [6] [µM] | patients with sustained clinical improvement (HBV infections)
1 | C/C(=N\c1ccccc1NO)c1c(C)cc(=O)n(O)c1O [Compound 208] | inhibited | + (Dose-dependent inhibition at ≤500 μM) | < 1 | 13 ± 1 | 0.69 | 0.69 ± 0.2 | 15 ± 7 | did not inhibit the huRNaseH1 at 100 μM | stable | + (Dose-dependent inhibition at ≤100 μM) | inhibited RNA cleavage by the HBV RNaseH | 12 ± 0.1 | –
2 | Interferon α | – | – | – | – | – | – | – | – | – | – | – | – | 20-30%
